Structures can show the parent of a compound that is named as a salt. One block for each compound: values may come before it.
Assays:
[1] = target: T1, 5-HT1A (Rattus norvegicus, UniProt P19327); assay: Fixed Responding Model (fixed-ratio 30 food schedule), antagonism of 8-OH-DPAT; format: in vivo
T1 construct: from tissue; host or cells: rat brain (cortex and hippocampus membranes in the ex vivo assay; whole animal in the behavioural model)
T1 sequence (P19327 1-422): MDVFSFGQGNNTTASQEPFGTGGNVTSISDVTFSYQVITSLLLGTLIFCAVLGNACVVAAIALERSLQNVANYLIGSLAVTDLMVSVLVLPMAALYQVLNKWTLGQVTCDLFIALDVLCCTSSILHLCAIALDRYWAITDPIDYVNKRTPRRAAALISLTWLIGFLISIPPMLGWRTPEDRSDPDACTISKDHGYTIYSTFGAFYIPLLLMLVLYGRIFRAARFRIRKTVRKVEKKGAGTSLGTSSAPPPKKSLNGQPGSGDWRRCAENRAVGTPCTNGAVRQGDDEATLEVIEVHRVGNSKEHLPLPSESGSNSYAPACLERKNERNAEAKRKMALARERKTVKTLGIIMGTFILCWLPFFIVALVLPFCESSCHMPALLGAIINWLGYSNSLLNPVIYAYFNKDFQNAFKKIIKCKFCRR
Description: The ability of the compounds of this invention to function in vivo as 5-HT1A antagonists was assessed in rats using a Fixed Responding Model (Blackman, D., in, “Operant Conditioning: An Experimental Analysis of Behavior”, J. Butcher, Ed., Methuen and Co., Ltd., London). In this model rats are trained to respond (lever pressing) under a fixed-ratio 30 schedule of food presentation in order to receive a food pellet reinforcer. […] 5-HT1A antagonist activity is assessed by determining the test compound's ability to antagonize this decrease in response rate induced by administration of the agonist.

[2] = target: T1, 5-HT1A; assay: Ex vivo binding of [3H]-WAY-100635: 5-HT1A receptor occupancy in rat brain; conditions: for [3H]-WAY-100635 remaining in membrane preparation: 3 mg/kg ip
Description: The serotonergic 5-HT1A receptor occupancy in vivo of the compounds of this invention was determined using ex vivo binding techniques. Rats were injected with a 3 mg/kg ip dose of Example 1 or vehicle and then sacrificed after 1, 24, 72, 168, and 336 hours. […] Tissue was prepared by homogenization and washed once with buffer. Serotonergic 5-HT1A receptors were measured in the membrane preparation using the standard 5-HT1A receptor antagonist [^3H]-WAY-100635 (85 Ci/mmol). Specific binding was determined in the presence of […] methiothepin. The ability of the test compounds to displace [^3H]-WAY-100635 from the 5-HT1A receptor was then determined and expressed as the fmol/mg protein of [^3H]-WAY-100635 remaining in the membrane preparation after treatment with the test compound.

melting point: 119 to 121 °C
Compound: COc1ccccc1N1CCN(C[C@@H](CC2CCCCC2)NC(=O)C2(C)CCCCC2)CC1 (as salt: hydrochloride) (hydrate or solvate) [Example 1, 1-Methyl-cyclohexanecarboxylic acid {(1R)-1-cyclohexylmethyl-2-[4-(2-methoxyphenyl)-piperazin-1-yl]-ethyl}-amide hydrochloride hydrate]

Reversal of the effect of 8-OH-DPAT on response rate ([1]; 3 mg/kg sc vs 8-OH-DPAT 1 mg/kg sc): completely reverses
Response Rate ([1]; 8-OH-DPAT (1 mg/kg sc) + test compound 3 mg/kg sc): 2.4 ± 0.3 responses/second
Duration of significant inhibition of the 8-OH-DPAT-induced decrease in responding ([1]; single dose 3 mg/kg sc, daily 8-OH-DPAT 1 mg/kg sc): up to 17 days
Response Rate ([1]; single dose 3 mg/kg sc, daily 8-OH-DPAT 1 mg/kg sc, Day 1): 2.4 ± 0.3 responses/second
Response Rate ([1]; single dose 3 mg/kg sc, daily 8-OH-DPAT 1 mg/kg sc, Day 4): 2.1 ± 0.3 responses/second
Response Rate ([1]; single dose 3 mg/kg sc, daily 8-OH-DPAT 1 mg/kg sc, Day 7): 2.0 ± 0.3 responses/second
Response Rate ([1]; single dose 3 mg/kg sc, daily 8-OH-DPAT 1 mg/kg sc, Day 11): 1.8 ± 0.2 responses/second
Response Rate ([1]; single dose 3 mg/kg sc, daily 8-OH-DPAT 1 mg/kg sc, Day 14): 1.7 ± 0.3 responses/second
Response Rate ([1]; single dose 3 mg/kg sc, daily 8-OH-DPAT 1 mg/kg sc, Day 17): 1.0 ± 0.2 responses/second
Response Rate ([1]; single dose 3 mg/kg sc, daily 8-OH-DPAT 1 mg/kg sc, Day 21): 0.7 ± 0.2 responses/second
[3H]-WAY-100635 remaining in membrane preparation ([2]; 1 hour, cortex): 4.0 ± 0.1 fmol/mg protein
[3H]-WAY-100635 remaining in membrane preparation ([2]; 1 hour, striat.): 6.0 ± 0.3 fmol/mg protein
[3H]-WAY-100635 remaining in membrane preparation ([2]; 24 hour, cortex): 8.0 ± 0.6 fmol/mg protein
[3H]-WAY-100635 remaining in membrane preparation ([2]; 24 hour, striat.): 12.0 ± 2.7 fmol/mg protein
[3H]-WAY-100635 remaining in membrane preparation ([2]; 72 hours, cortex): 9.0 ± 0.6 fmol/mg protein
[3H]-WAY-100635 remaining in membrane preparation ([2]; 72 hours, striat.): 14.0 ± 2.3 fmol/mg protein
[3H]-WAY-100635 remaining in membrane preparation ([2]; 7 days, cortex): 7.0 ± 0.3 fmol/mg protein
[3H]-WAY-100635 remaining in membrane preparation ([2]; 7 days, striat.): 15.0 ± 1.7 fmol/mg protein
[3H]-WAY-100635 remaining in membrane preparation ([2]; 14 days, cortex): 11.0 ± 0.3 fmol/mg protein
[3H]-WAY-100635 remaining in membrane preparation ([2]; 14 days, striat.): 26.0 ± 0.6 fmol/mg protein
Duration of significant inhibition of WAY-100635 binding after a single administration ([2]; single administration, ex vivo binding): up to 14 days
Compound: COc1ccccc1N1CCN(C[C@@H](CC2CCCCC2)NC(=O)C2(C)CCCCC2)CC1 [Example 1, 1-Methyl-cyclohexanecarboxylic acid {(1R)-1-cyclohexylmethyl-2-[4-(2-methoxyphenyl)-piperazin-1-yl]-ethyl}-amide hydrochloride hydrate]
